Publication PMC11478212, “Antitumoral and Antiproliferative Potential of Synthetic Derivatives of Scorpion Peptide IsCT1 in an Oral Cavity Squamous Carcinoma Model” (Molecules, 2024)
Values joined by “and” are separate entries in the source; they are usually repeats but may differ in a detail not shown here. Equal values may be shown once. “Also recorded” adds a separate entry of the source. Read-outs that look alike come from different tables or passages of the source.

Key:
[1] = Resistance to degradation in 25% fetal bovine serum; format: in vitro ADME; settings: 25% fetal bovine serum in water, 37 °C, HPLC peak area vs t = 0 h, triplicate
Description: Figure 1 (a) Helical wheel projections of the IsCT1, AFPK-IsCT1, KKK-IsCT1, and IsCT-P peptides were generated using the Heliquest server (https://heliquest.ipmc.cnrs.fr/, accessed on 15 July 2024). In these projections, yellow, gray, and green circles represent hydrophobic amino acids, while blue and pink circles denote hydrophilic amino acids. (b) Resistance to degradation assays for all peptides were performed over 6 h in a solution containing 25% fetal bovine serum (FBS). These experiments were conducted in triplicate and aliquots were collected for analysis at 0, 0.5, 1, 2, 4, and 6 h of incubation. The aliquots were subsequently analyzed using high-performance liquid chromatography (HPLC) after each incubation period. The degradation kinetics of the peptides were determined by comparing the integrated peak area associated with the peptide at the start of the experiment (t = 0 h) with the integrated peak area at subsequent time points (t = 0.5, 1, 2, 4, 6 h). (c) The hemolytic activity of synthetic peptides analogous to IsCT1 was assessed on human erythrocytes within a concentration range of 0.13–128 μmol L^−1 in phosphate-buffered saline (PBS) (n = 3). A 1% solution of sodium dodecyl sulfate (SDS) in PBS served as a positive control, while PBS alone was used as a negative control. (d) A table summarizing the sequences, molecular weights, and physicochemical properties of the IsCT1, AFPK-IsCT1, and KKK-IsCT1 peptides. […]
Stability assays were conducted using GIBCO (Waltham, MA, USA) fetal bovine serum diluted to 25% in water, as described by Torres et al.. Briefly, peptide solutions were added to the serum solution and maintained at 37 °C. The experiments were carried out in triplicate and samples were taken at 0, 0.5, 1, 2, 4, and 6 h post incubation. The degradation kinetics were monitored using liquid chromatography and the percentage of remaining peptides was calculated by integrating the peak area of the peptide.

FN1 cells = test: MTT cell viability; format: cell-based; settings: FN1 normal human fibroblasts, treatment 24 and 48 h (time of IC50 not given), absorbance 540 nm, N/IC50 = no IC50 for the tested concentrations, no toxicity
Description: (§1) Cell survival was assessed using an MTT assay. Tumor (SSC-9 and SSC-25) and normal cells (FN1 and J-774) were incubated in 96-well plates at a density of 10^5 cells/mL for 24 h. Subsequently, treatments were administered as described in Table 1 for 24 and 48 h. After the treatment period, the supernatant was aspirated and 100 μL of MTT at a concentration of 5 mg/mL (Calbiochem—Darmstadt, Germany) was added to the plate and incubated for 3 h at 37 °C with 5% CO2. Afterward, the content was removed and 200 μL of methanol was added to dissolve the formazan crystals. Absorbance was then measured at a wavelength of 540 nm using a microplate reader. The hemolysis assay was performed as previously reported.

J774 cells = test: MTT cell viability; format: cell-based; settings: J774 normal macrophages, treatment 24 and 48 h (time of IC50 not given), absorbance 540 nm, N/IC50 = no IC50 for the tested concentrations, no toxicity
Description: as §1

SCC-25 cells = test: MTT cell viability; format: cell-based; settings: treatment 24 and 48 h (time of IC50 not given), absorbance 540 nm, N/IC50 = no IC50 for the tested concentrations, no toxicity, read-out: IC50
Description: as §1

SCC-9 cells = test: MTT cell viability; format: cell-based; settings: treatment 24 and 48 h (time of IC50 not given), absorbance 540 nm, N/IC50 = no IC50 for the tested concentrations, no toxicity, read-out: IC50
Description: as §1

SCC-25 tumor cells = test: Mitochondrial membrane electrical potential (ΔΨm) by flow cytometry; format: cell-based; settings: 24 h, IsCT-P and AC-AFPK-IsCT1 at IC50, others 100 µM, MitoRed, mean ± SD of three independent experiments
Description: (§2) Figure 4 Analysis of mitochondrial electrical potential (ΔΨm) using flow cytometry following a 24 h treatment with synthetic analogs of IsCT1 peptides. The indicated cells were treated at the IC50 values obtained for the IsCT-P and AC-AFPK-IsCT1 peptides and at a concentration of 100 µM for the other peptides. (a) Representative histograms of cell distribution according to ΔΨm; (b) bar graph showing ΔΨm expressed as the mean ± SD of three independent experiments of SCC-9 tumor cells; (c) bar graph showing ΔΨm expressed as the mean ± SD of three independent experiments of SCC-25 tumor cells; (d) bar graph showing ΔΨm expressed as the mean ± SD of three independent experiments of normal FN1 cells; (e) bar graph showing ΔΨm expressed as the mean ± SD of three independent experiments of normal J774 cells. Statistical differences were obtained using ANOVA and Tukey–Kramer multiple comparison tests. * p < 0.05, ** p < 0.01, and *** p < 0.001 denote significance. ns = not significant.
(§3) Tumor (SSC-9 and SSC-25) and normal cells (FN1 and J-774) were subjected to treatment for a period of 24 h at the peptides’ IC50 concentrations. After treatment, the cells were trypsinized, centrifuged at 1200 rpm for 5 min, the supernatant was discarded, and the cells were resuspended in complete medium containing MitoRed™ (Sigma-Aldrich, USA) (200 nM/L). Subsequently, the samples were incubated in an incubator at 37 °C with 5% CO2 for 30 min. The tubes were then centrifuged, the supernatant was discarded, and the pellet was resuspended in 200 μL of FACS buffer. Readings were performed using a FACScanto flow cytometer (BD) with 10,000 events, and histograms were acquired and analyzed using FCS Express software 2.0.

SCC-9 tumor cells = test: as above; format: cell-based; settings: 24 h, IsCT-P and AC-AFPK-IsCT1 at IC50, others 100 µM, MitoRed, mean ± SD of three independent experiments
Description: as §2, §3

## Ac-ALGKFWPKIKSLF-NH2 [AC-AFPK-IsCT1]
[1]; 30 min
  metabolised at 0.5 h: 18%
FN1 cells
  IC50: did not exhibit cytotoxic effects; also recorded: N/IC50
J774 cells
  IC50: N/IC50
SCC-25 cells
  IC50: 84.4 µM and 84.5 µM
SCC-9 cells
  IC50: 90.5 µM
SCC-25 tumor cells
  decrease in ΔΨm: 31.5 ± 5.4%
SCC-9 tumor cells
  decrease in ΔΨm: 16.3 ± 2.7%

## H-ILKKIWKPIKKLF-NH2 [IsCT-P]
[1]; 1 h, read-out: peptide remaining intact after 1 h
  remaining at 1 h: 70%
[1]; 4 h, read-out: peptide remaining intact after 4 h
  remaining at 4 h: 18%
FN1 cells; read-out: IC50
  IC50: 80.3 µM and 80.4 µM
J774 cells
  IC50: N/IC50
SCC-25 cells
  IC50: 81.3 µM
SCC-9 cells
  IC50: 96.5 µM
SCC-25 tumor cells
  decrease in ΔΨm: 44.4 ± 4.8%
SCC-9 tumor cells
  decrease in ΔΨm: 21.2 ± 5.1%
